Results published in patent US9873705B2, “Vinylogous thioester compounds and methods of use” (THE TRUSTEES OF DARTMOUTH COLLEGE, priority 2015, dated 2018).
“Also recorded” adds a separate entry of the source.

Assays:
[1] = tested on: p62 and LC3B protein expression in U87-MG cells; test: Western blot of autophagy markers p62 and LC3B; type: cell-based, human
Excerpt: Ras dysregulated tumors depend on autophagy to remove damaged mitochondria and allow for their survival. […] LC3B I is lipidated to form LC3B II following induction of autophagy. LC3B II is recruited and subsequently integrated into the autophagosome. p62 functions as an adaptor protein in autophagy by binding to both ubiquitin-labeled damaged cargo such as protein aggregates or mitochondria and LC3B II to facilitate cargo uptake into the autophagosome. Degradation of the cargo occurs when the autophagosome fuses with the lysosome; when autophagy is inhibited with hydroxychloroquine (HCQ), a drug that prevents acidification of the lysosome, both LC3B II and p62 accumulate as derogation of the autophagosome is prevented, making them valuable markers of autophagic flux.
The data for FIG. 4 was obtained as follows: U87-MG cells were plated in 6-well plates at a concentration of 500,000 cells/well and allowed to adhere overnight. Cells were treated for 12 h with either DMSO or 2 μM Y102, followed by an additional 12 h co-treatment with or without 50 μM HCQ. Following treatment, cells were harvested using 0.25% trypsin, rinsed with PBS, and lysed with 75 μL modified RIPA buffer (50 mM NaCl, 1% v/v nonidet P40, 0.5% w/v sodium deoxycholate, 0.05% w/v sodium dodecyl sulfate, 50 mM Tris pH 8.0) containing 1 mM NaVO4, 1 mM NaF, 1 mM phenylmethylsulfonyl fluoride, 0.1 μg/mL leupeptin, 100 μM benzamidine HCl, 1 μM aprotinin, 0.1 μg/mL soybean trypsin inhibitor, 0.1 μg/mL pepstatin, and 0.1 μg/mL antipain. Protein was quantified using a BCA assay kit (Pierce). 40 μg of protein prepared in 1× Laemmli sample buffer (50 mM Tris pH 6.8, 0.02% w/v bromophenol blue, 2% w/v sodium dodecyl sulfate, 10% v/v glycerol, 1% v/v beta-mercaptoethanol, 12.5 mM EDTA) was separated on a 4-15% polyacrylamide gel using sodium dodecyl sulfate-polyacrylamide gel electrophoresis. Protein was transferred to nitrocellulose membrane, blocked in 5% nonfat milk in TBST, and probed with primary antibodies anti-LC3BI/II (Cell Signaling, 1:1000, overnight at 4° C.), anti-p62/SQSTM-1 D-3 (Santa Cruz, 1:1000, 1 h at room temperature), or anti-α-tubulin B-1-2-5 (Santa Cruz, 1:10000, 1 h at room temperature) in 2% nonfat milk in TBST. Blots were incubated in 1:20,000 anti-rabbit HRP or 1:10,000 anti-mouse HRP secondary antibodies diluted in 2% nonfat milk in TBST for 1 h at room temperature. Film was exposed to standard ECL (Pierce)-coated blots and developed using a standard film processor.

[2] = tested on: mitochondria of U87-MG cells; test: Mitotracker Red CMXRos mitochondrial phenotype imaging; type: cell-based, human; settings: 24 h, 2 or 4 μM
Method: To examine whether there was a change in the mitochondrial phenotype of cells following Y102 treatment, Mitotracker Red CMXRos, a fluorescent dye whose accumulation is dependent upon membrane […], was used.
The data for FIG. 7 was obtained as follows: U87-MG cells were plated on poly-L-lysine (Sigma) coated coverslips at a concentration of 50,000 cells/well in a 24-well plate and allowed to adhere overnight. Cells were treated for 24 h with DMSO, 2 μM Y102, 4 μM Y102, or 50 μM HCQ. 30 minutes prior to collection, cells were stained with 100 nM Mitotracker Red CMXRos (Cell Signaling Technology, red) in media at 37° C. Cells were fixed for 10 minutes with 4% methanol-free paraformaldehyde, permeabilized for 15 minutes with 0.5% Triton X-100, blocked with immunofluorescence buffer (2%[v/v] goat serum, 0.2%[v/v] Triton X-100 and 0.05%[w/v] sodium azide in PBS) for 1 h, and stained for 1 h at room temperature for the autophagy marker p62 using anti-p62/SQSTM-1 D-3 (Santa Cruz, 1:500, 1 h at room temperature). Following 3 washes with PBST, cells were stained with goat anti-mouse 488 (Jackson ImmunoResearch Laboratories) secondary antibody for 1 h (green; not shown). After an additional two washes with PBST, cell nuclei were stained with 0.33 μg/mL DAPI (Molecular Probes) for 5 minutes (blue). Coverslips were mounted on glass slides with ProLong Gold antifade medium. […]

[3] = tested on: ira2Δ yeast (NF1 deficient yeast); test: Yeast growth inhibition (dose response) assay, OD600; type: cell-based, Saccharomyces cerevisiae; settings: isogenic yeast system; 0 to 100 μM, 18 h
Excerpt: A high-throughput screen was used to identify compounds that are synthetically lethal with NF1 loss (14). A synthetic lethal interaction occurs when loss of two genes due to genetic deletion or pharmacologic inhibition is nonlethal independently but is lethal in combination (FIG. 1) (17). The first gene lost is NF1, and the loss of the second gene is mimicked through treatment with the screened compounds. The screen used Saccharomyces cerevisiae lacking IRA2 (ira2Δ), a yeast homologue of NF1, as a model for NF1 loss. ira2Δ yeast have increased RAS-GTP, which in turn activates MAPK and PKA pathways that mimic the pathways that are increased in NF1 deficient Schwann cells (18). […]
Candidate compounds were screened in ira2Δ yeast cells to identify target compounds synthetically lethal to NF1 loss. Growth inhibition of yeast was measured using the optical density of yeast cultures treated with compounds compared to DMSO control (14).
Growth inhibition assays as described above were performed on ira2Δ yeast cells and NF1-deficient glioblastoma cells. […] Following 18 h treatment, OD600 was measured using a THERMOmax (Molecular Devices) microplate reader and SOFTmax Pro 4.3 LS software. […] AlamarBlue fluorescence was determined with a Spectramax M2 (Molecular Devices) plate reader at an excitation of 544 nm and an emission of 590 nm using SoftMax Pro 3 software. […]

SMILES: Cn1cnnc1S/C=C/C(=O)c1ccc(F)cc1 [Y102]
- LC3B I/II conversion (LC3B II accumulation) ([1]; 12 hours Y102 followed by 12 hours HCQ co-treatment): LC3B II accumulation occurred, but not as robustly as with HCQ alone; also recorded: LC3B I/II conversion was seen
- p62 accumulation (autophagy marker) ([1]; U87-MG, Western blot, 24 hours, 2 μM Y102, 50 μM HCQ): accumulation of the autophagy marker p62
- LC3B I/II conversion (LC3B II accumulation) ([1]; U87-MG, Western blot, single agent, 2 μM Y102, 50 μM HCQ): not found to accumulate; also recorded: not LC3B I/II conversion
- mitochondrial phenotype (Mitotracker Red CMXRos) [2]: altered mitochondrial phenotype; also recorded: perinuclear clustering of the mitochondria
- mitochondrial phenotype (Mitotracker Red CMXRos) ([2]; listed as Y1022): perinuclear accumulation of the mitochondria
- sensitivity of NF1 deficient yeast (growth) [3]: selectively sensitive
